The results in this text go back to ChEMBL document CHEMBL1124023, “Analgesic dipeptide derivatives. 4. Linear and cyclic analogues of the analgesic compounds arginyl-2-[(o-nitrophenyl)sulfenyl]tryptophan and lysyl-2-[(o-nitrophenyl)sulfenyl]tryptophan” (1988).

What all share (format): functional
Assay [1] deals with Mus musculus. The experiment in a line: Analgesic activity (0.5 ug icv) tested after 30min, in mice tail-flick test. (Hot-plate and tail-flick tests time the reaction to a heat stimulus.)
In assay [2] the test system is Mus musculus. The experiment in a line: Analgesic activity (0.5 ug icv) tested after 5min, in mice tail-flick test.
Assay [3] has as its system Mus musculus. The experiment in a line: Analgesic activity (0.5 ug icv) tested after 60min, in mice tail-flick test.
The subject of assay [4] is Mus musculus. The experiment in a line: Analgesic activity (2.5 ug icv) tested after 30min, in mice tail-flick test.
Assay [5] relates to Mus musculus. The assay can be described thus: Analgesic activity (2.5 ug icv) tested after 5min, in mice tail-flick test.
Assay [6] relates to Mus musculus. The assay can be described thus: Analgesic activity (2.5 ug icv) tested after 60min, in mice tail-flick test.
The subject of assay [7] is Mus musculus. The assay can be described thus: Analgesic activity (0.5 ug icv) tested after 30 min in mice tail-flick test.
Assay [8] has as its system Mus musculus. The assay can be described thus: Analgesic activity (0.5 ug icv) tested after 5 min in mice tail-flick test.
Assay [9] has as its system Mus musculus. The experiment in a line: Analgesic activity (0.5 ug icv) tested after 60 min in mice tail-flick test.
For assay [10], the system named is Mus musculus. The assay can be described thus: Analgesic activity (5 ug icv) tested after 30min, in mice tail-flick test.
For assay [11], the system named is Mus musculus. The assay can be described thus: Analgesic activity (5 ug icv) tested after 5min, in mice tail-flick test.
Assay [12] has as its system Mus musculus. The experiment in a line: Analgesic activity (5 ug icv) tested after 60min, in mice tail-flick test.
Assay [13] concerns Mus musculus. The assay can be described thus: Analgesic activity (12.5 ug icv) tested after 30min, in mice tail-flick test.
For assay [14], the system named is Mus musculus. The experiment in a line: Analgesic activity (12.5 ug icv) tested after 5min, in mice tail-flick test.
The subject of assay [15] is Mus musculus. The experiment in a line: Analgesic activity (12.5 ug icv) tested after 60min, in mice tail-flick test.
For assay [16], the system named is Mus musculus. The assay can be described thus: Analgesic activity (25 ug icv) tested after 30min, in mice tail-flick test.
For assay [17], the system named is Mus musculus. The assay can be described thus: Analgesic activity (25 ug icv) tested after 5min, in mice tail-flick test.
Assay [18] deals with Mus musculus. The experiment in a line: Analgesic activity (25 ug icv) tested after 60min, in mice tail-flick test.
For assay [19], the system named is Mus musculus. The assay can be described thus: Analgesic activity (6.25 ug icv) tested after 30min, in mice tail-flick test.
Assay [20] deals with Mus musculus. The assay can be described thus: Analgesic activity (6.25 ug icv) tested after 5min, in mice tail-flick test.
The test system of assay [21] is Mus musculus. The assay can be described thus: Analgesic activity (1 ug icv) tested after 30min, in mice tail-flick test.
In assay [22] the test system is Mus musculus. The experiment in a line: Analgesic activity (1 ug icv) tested after 5min, in mice tail-flick test.
Assay [23] relates to Mus musculus. The assay can be described thus: Analgesic activity (1 ug icv) tested after 60min, in mice tail-flick test.
Assay [24] has as its system Mus musculus. The experiment in a line: Analgesic activity (3.125 ug icv) tested after 60min, in mice tail-flick test.
Assay [25] concerns Mus musculus. The assay can be described thus: Analgesic activity (6.25 ug icv) tested after 60min, in mice tail-flick test.
The test system of assay [26] is Mus musculus. The assay can be described thus: Analgesic activity (3.125 ug icv) tested after 30min, in mice tail-flick test.
For assay [27], the system named is Mus musculus. The experiment in a line: Analgesic activity (3.125 ug icv) tested after 5min, in mice tail-flick test.

`COC(=O)[C@H](CCCN=C(N)N)NC(=O)[C@H](N)Cc1cn(Sc2ccccc2[N+](=O)[O-])c2ccccc12.Cl`: the “Change in reaction time” value in the assay with Mus musculus [1] is 26%; in the assay with Mus musculus [2], 30%; with Mus musculus [3], 23%; in the assay with Mus musculus [4], 41%; in the assay on Mus musculus [5], 125%; with Mus musculus [6], 20%.
For the compound `COC(=O)[C@H](Cc1cn(Sc2ccccc2[N+](=O)[O-])c2ccccc12)NC(=O)[C@@H](N)CCCCN`, the “Change in reaction time” value is on record as 50% with Mus musculus [1], 98% in the assay with Mus musculus [2] and 20% in the assay on Mus musculus [3].
The corresponding values for `Cl.N=C(N)NCCCC1NC(=O)[C@H](Cc2cn(Sc3ccccc3[N+](=O)[O-])c3ccccc23)NC1=O` (stereo in doubt) are 23%, 35% and 15%.
Turning to `COC(=O)[C@H](CCCN=C(N)N)NC(=O)[C@@H](N)Cc1cn(Sc2ccccc2[N+](=O)[O-])c2ccccc12.Cl`, the “Change in reaction time” value in the assay on Mus musculus [7] is given as 63%; in the assay on Mus musculus [8] it was 113%; in the assay on Mus musculus [9] it was 20%.
On to `COC(=O)[C@@H](CCCN=C(N)N)NC(=O)[C@@H](N)Cc1cn(Sc2ccccc2[N+](=O)[O-])c2ccccc12.Cl`, for which the “Change in reaction time” value was 88% in the assay on Mus musculus [10]; 97% in the assay on Mus musculus [11]; 30% in the assay on Mus musculus [12]; 23% with Mus musculus [1]; 18% in the assay on Mus musculus [8]; 9% in the assay with Mus musculus [3]. The “Change in reaction time” value in the assay on Mus musculus [4] came out at 18%; with Mus musculus [5], 20%; with Mus musculus [6], 9%.
On to `COC(=O)[C@H](Cc1cn(Sc2ccccc2[N+](=O)[O-])c2ccccc12)NC(=O)[C@@H](N)CCCN=C(N)N`, for which the results for the “Change in reaction time” value in the assay on Mus musculus [1], in the assay with Mus musculus [2] and with Mus musculus [3] were 52%, 120% and 22%, respectively.
As for `COC(=O)[C@@H](CCCN=C(N)N)NC(=O)[C@H](N)Cc1cn(Sc2ccccc2[N+](=O)[O-])c2ccccc12.Cl`, the “Change in reaction time” value in the assay on Mus musculus [10] is recorded as 42%; with Mus musculus [11] it was 34%; in the assay with Mus musculus [12], 29%; with Mus musculus [1], 10%; in the assay on Mus musculus [2], 6%; in the assay on Mus musculus [3], -2%. Besides, the “Change in reaction time” value in the assay with Mus musculus [4] was 3%; in the assay with Mus musculus [5], 16%; with Mus musculus [6], -2%.
In the case of `NC(N)=NCCC[C@H](NC(=O)[C@@H](N)Cc1ccc(O)cc1)C(=O)O` [KYOTORPHIN], the “Change in reaction time” value with Mus musculus [13] turned out to be 1%; in the assay on Mus musculus [14], 18%; in the assay on Mus musculus [15] it was 6%; in the assay on Mus musculus [16], 31%; in the assay on Mus musculus [17], 98%; in the assay on Mus musculus [18], 10%.
As for `COC(=O)[C@H](CCCCN)NC(=O)[C@@H](N)Cc1cn(Sc2ccccc2[N+](=O)[O-])c2ccccc12`, the “Change in reaction time” value with Mus musculus [1] is listed as 76%; in the assay on Mus musculus [2], 138%; with Mus musculus [3] it was 33%.
For the compound `NC(N)=NCCC[C@@H](NC(=O)[C@H](N)Cc1ccc(O)cc1)C(=O)O`, the “Change in reaction time” value in the assay with Mus musculus [19] is recorded as 68%; in the assay with Mus musculus [20], 102%; in the assay with Mus musculus [21], 5%; with Mus musculus [22] it was 10%; in the assay with Mus musculus [23], -2%; in the assay on Mus musculus [24] it was 15%. The results for the “Change in reaction time” value in the assay on Mus musculus [25], with Mus musculus [26] and in the assay with Mus musculus [27] were 10%, 34% and 79%, respectively.
